Peptide text beside a SMILES is read from it.
Row | SMILES | logP
1 | Oc1ccc2cccc(O)c2c1 | 1.94
2 | COC(=O)Nc1cccc(Cl)c1 | 2.58
3 | CCNC(=O)c1ccccc1 | 1.28
4 | O=[N+]([O-])O[C@H]1CO[C@H]2[C@@H]1OC[C@H]2O[N+](=O)[O-] | 1.31
5 | CCNc1ccccc1 | 2.16
6 | c1nc[nH]n1 | -0.58
7 | ClC=C(Cl)Cl | 2.42
8 | NNC(=O)c1ccnc(Br)c1 | 0.25
9 | CNC(=O)OCc1c2c(n3c1C(OC(C)=O)CC3)C(=O)C(Cl)=C(OC)C2=O (centres undefined) | 2.08
10 | C1=C(c2ccccc2)CCCC1 | 4.53
11 | O=C(O)COc1cccc(O)c1 | 0.76
12 | C=CCC1(C2C=CCC2)C(=O)NC(=O)NC1=O (centres undefined) | 1.51
13 | CS(=O)(=O)CCC(N)C(=O)O (centres undefined) | -3.1
14 | CCc1ccncc1 | 1.65
15 | CNCc1ccccc1 | 1.52
16 | c1ccc2c(c1)cnn2C12CC3CC(CC(C3)C1)C2 | 4.33
17 | CN(Cc1cnc2nc(N)nc(N)c2n1)c1c(Cl)cc(C(=O)N[C@@H](CCC(=O)O)C(=O)O)cc1Cl | -0.1
18 | NCCc1ccccc1 | 1.41
19 | CCc1ccccc1OCC(=O)O | 2.53
20 | NC(=O)c1ccc(Cl)cc1 | 1.55
21 | NNC(=O)c1ccccc1 | 0.19
22 | O=C(C(=O)c1ccco1)c1ccco1 | 1.24
23 | CCCCCCCC(=O)OCC(=O)C1(O)CCC2C3CCC4=CC(=O)CCC4(C)C3C(O)CC21C (centres undefined) | 5.49
24 | OC12CC3CC(CC(C3)C1)C2 | 2.14

Row | SMILES | logP
25 | COC(=O)c1ccncc1 | 0.87
26 | CNCC(c1ccccc1)C(C)C (centres undefined) | 3.12
27 | C=CCCCCCC | 4.57
28 | CCCCC(NC(Cc1ccccc1)C(=O)N1CCC(OCOC)CC1)C(=O)NC(CC1CCCCC1)C(O)CC(C(=O)NCCNc1noc(N)n1)C(C)C (centres undefined) | 4.11
29 | COc1ccccc1S(I)=C(N(C)C)N(C)C (centres undefined) | -0.52
30 | CCC1(c2ccccc2)C(=O)NC(=O)NC1=O | 1.47
31 | O=C(O)Cc1cccc(I)c1 | 2.62
32 | CC(=O)N[C@@H](C)C(=O)N[C@@H](CC(C)C)C(N)=O (Ac-Ala-Leu-NH2) | -0.54
33 | COc1ccc(S(I)=C(N(C)C)N(C)C)cc1 (centres undefined) | -0.51
34 | CC(C)C(=O)NN | -0.63
35 | CN(C)C(N(C)C)=S(I)c1cccc(Cl)c1Cl (centres undefined) | 0.29
36 | CN(C)C(N(C)C)=S(I)c1ccccc1I (centres undefined) | 0.3
37 | CCCC(C)C1(CC)C(=O)N=C(S)NC1=O (centres undefined) | 2.85
38 | COc1cc2c(c(OC)c1OC)-c1ccc(=O)c(OC)cc1[C@@H](NC(=O)C(F)(F)F)CC2 | 2.08
39 | CS/C(C)=N/OC(=O)N(C)SN(C)C(=O)O/N=C(\C)SC | 1.7
40 | CCc1cc(NC(C)=O)cc(CC)c1O | 1.87
41 | CCn1nnc2ccccc21 | 1.58
42 | Cn1c(CO)cnc1[N+](=O)[O-] | -0.35
43 | CCC(=O)O[C@]1(C(=O)CO)CC[C@H]2[C@@H]3CCC4=CC(=O)CC[C@]4(C)[C@H]3[C@@H](O)C[C@@]21C | 2.7
44 | CCc1cnc(NS(=O)(=O)c2ccc(N)cc2)nc1 | 0.9
45 | CC(=O)NCC(=O)N[C@@H](CC(C)C)C(=O)NCC(N)=O (Ac-Gly-Leu-Gly-NH2) | -1.23
46 | c1ccc2c(c1)Cc1ccccc1-2 | 4.18
47 | CCN(CC)CCOC(=O)C=Cc1ccc(OC)cc1 | 3.55
48 | NS(=O)(=O)c1cccnc1 | -0.49

Row | SMILES | logP
49 | Clc1ccc2ccccc2n1 | 2.71
50 | Nc1ccccc1N | 0.15
51 | N#CCC(=O)O | -0.76
52 | CCN(CC)C(C)C(=O)OCn1ncc2c(=O)[nH]cnc21 (centres undefined) | 0.72
53 | CCC(C)NC(=O)C=C(Br)c1ccccc1 (centres undefined) | 3.56
54 | CCCCCC(=O)NN | 0.48
55 | COC(=O)C12OCC34C(CC5C(C)=C(O)C(=O)CC5(C)C3C(O)C1O)OC(=O)C(OC(=O)C=C(C)C(C)C)C24 (centres undefined) | 1.66
56 | CC(C)C(=O)C(C)C | 1.86
57 | CC(C)Oc1ccccc1O | 2.09
58 | CC(=O)N[C@@H](Cc1ccccc1)C(=O)NCC(=O)N[C@@H](CC(C)C)C(N)=O | 0.6
59 | CNC(=O)OC | -0.06
60 | CC(=O)Nc1cccc(C)c1 | 1.68
61 | O=C(Cn1c(=O)sc2ccc(Cl)cc21)N1CCN(CCO)CC1 | 1.04
62 | CN1C(=O)CN=C(c2ccccc2F)c2cc(Cl)ccc21 | 2.75
63 | Clc1cccc2c1CCNCC2 | 2.4
64 | Cn1ccnc1 | -0.06
65 | CCOC(=O)NCCOc1ccc(Oc2ccccc2)cc1 | 4.3
66 | Oc1cc(Cl)c(Cl)c(Cl)c1 | 4.01
67 | Cc1cccc(OC(=O)CNC(=O)c2ccccc2)c1 | 2.72
68 | O=C(NC(CO)C(O)c1ccc(Br)cc1)C(Cl)Cl (centres undefined) | 1.87
69 | FC1(F)C(F)(F)C(F)(F)C(F)(F)C(F)(F)C1(F)F | 2.91
70 | N#Cc1ccc[nH]1 | 1.13
71 | CC(=O)c1cccc(S(I)=C(N(C)C)N(C)C)c1 (centres undefined) | -0.88
72 | FC(F)(F)c1cccc(C(F)(F)F)c1 | 3.83

Row | SMILES | logP
73 | Cn1c([N+](=O)[O-])cnc1-c1nc2ccccc2n1CCCN1CCOCC1 | 1.8
74 | S=C=Nc1cccc2ccccc12 | 4.34
75 | O=CNc1cccc(Cl)c1 | 1.9
76 | O=C(Cc1ccccc1)NC(CO)C(O)c1ccc([N+](=O)[O-])cc1 (centres undefined) | 1.52
77 | O=[N+]([O-])c1ccc(Nc2ccccc2)cc1 | 3.74
78 | NC(=S)N1CCCCC1 | 0.73
79 | CCCCNC | 1.33
80 | CCc1ccc(S(I)=C(N(C)C)N(C)C)cc1 (centres undefined) | 0.29
81 | Cc1ccccc1N(C)C | 2.85
82 | O=c1cc(-c2ccccc2)o[nH]1 | 2.55
83 | Cc1ccc(C)c(C)c1 | 3.63
84 | CCOP(=S)(OCC)SC(CCl)N1C(=O)c2ccccc2C1=O (centres undefined) | 4.69
85 | COc1cc2c(c(OC)c1O)-c1ccc(OC)c(=O)cc1[C@@H](NC(=O)C(F)(F)F)CC2 | 1.67
86 | COc1cc(C(=O)NN)ccn1 | -0.1
87 | CCCCCNC(=O)c1ccc(S(N)(=O)=O)cc1 | 1.51
88 | O=Nc1ccc2ccccc2c1O | 2.46
89 | NC(=O)c1ccccc1O | 1.28
90 | O=[N+]([O-])c1cc[n+]([O-])c2ccccc12 | 1.09
91 | CCN(CC)C(=O)SCc1ccc(Cl)cc1 | 3.4
92 | CC(C)(C)CO | 1.31
93 | NC[C@H](O)c1ccc(O)c(O)c1 | -1.24
94 | COc1nnc(OC)c2ccccc12 | 2.22
95 | COC1=CC(=O)C[C@@H](C)[C@]12Oc1c(Cl)c(OC)cc(OC)c1C2=O | 2.18
96 | Cc1ccc([N+](=O)[O-])cn1 | 0.99

Row | SMILES | logP
97 | CCC(C)c1cc([N+](=O)[O-])cc(C(C)CC)c1O (centres undefined) | 4.8
98 | CCc1cccnc1 | 1.66
99 | CCCc1ccncc1 | 2.1
100 | COc1ccc2cnccc2c1 | 2.22
101 | Cc1cnc2ccccc2c1 | 2.53
102 | COC(=O)c1ccccc1C | 2.75
103 | CN(C)/N=N/c1ccc2n[nH]cc2c1 | 2.36
104 | FC(F)Oc1ccccc1 | 2.44
105 | Oc1cccc(I)c1 | 2.93
106 | Cc1ccc2ccccc2c1 | 3.86
107 | NCCCCCc1cccnc1 | 1.41
108 | c1cncc(CCN2CCCC2)c1 | 1.34
109 | CNCC(O)c1ccc(O)c(OC)c1 (centres undefined) | -0.64
110 | Cc1cc[nH]c(=O)n1 | -1.45
111 | CCCCCCCOC(=O)c1ccc(O)cc1 | 4.83
112 | Cn1cnc([N+](=O)[O-])c1Sc1ncnc2nc[nH]c12 | 0.1
113 | Clc1nc(Cl)c(Cl)c(Cl)c1Cl | 3.53
114 | COc1cc(C(O)CN)ccc1O (centres undefined) | -1.05
115 | C=C(C)C(=O)OCC(C)C | 2.66
116 | O=C(O)c1cccc(Cl)c1 | 2.68
117 | CC(=O)c1ccc2ncccc2c1 | 1.58
118 | CCC(=O)C(CC(C)N(C)C)(c1ccccc1)c1ccccc1 (centres undefined) | 3.93
119 | CCN(CC)N=Nc1ccc(C(N)=O)cc1 | 2.26
120 | c1ccc(CN2CCOCC2)cc1 | 1.58

Row | SMILES | logP
121 | Cc1cc(C)c(C)cc1C | 4
122 | NS(=O)(=O)c1cccc([N+](=O)[O-])c1 | 0.55
123 | CC(C)(Oc1ccc(Cl)cc1)C(=O)O | 2.57
124 | CCCN(CC)C(CC)C(=O)Nc1c(C)cccc1C (centres undefined) | 3.69
125 | O=C(CCCN1CCC(n2c(=O)[nH]c3ccccc32)CC1)c1ccc(F)cc1 | 3.91
126 | CNC(=O)Oc1cc(C)cc(C)c1 | 2.23
127 | CC(C)(C)OC(N)=O | 0.48
128 | NS(=O)(=O)c1ccc(O)cc1 | 0.06
129 | OC[C@H]1O[C@@H](Oc2ccccc2)[C@H](O)[C@@H](O)[C@@H]1O | -0.75
130 | CCn1cc(C(=O)O)c(=O)c2cnc(N3CCNCC3)nc21 | -2.15
131 | O=C(Nc1cccc2cccnc12)C(F)(F)F | 3.24
132 | COC(=O)C(Cc1ccccc1)NC(C)=O (centres undefined) | 0.92
133 | NC(=O)OCc1ccc(Cl)cc1 | 1.97
134 | CS(=O)(=O)c1ccc(N)cc1 | -0.12
135 | O=S(=O)(CCl)c1ccccc1 | 1.24
136 | CN(C)c1ccc(N=Nc2ccccc2)cc1 | 4.58
137 | COP(=O)(OC)O/C(C)=C/C(=O)N(C)C | 0
138 | CCOc1ccccc1-c1nc(N)nc(N)n1 | 1.03
139 | COc1cccc(S(I)=C(N(C)C)N(C)C)c1 (centres undefined) | -0.5
140 | CC=Cc1ccccc1 | 3.35
141 | CNC(=O)c1ccccc1 | 0.86
142 | Cc1cc(=O)cc(C)o1 | 0.1
143 | BrC=CBr | 1.76
144 | CCN(CC)C(=O)C1C2CC3C(OC(=O)C31)C2O (centres undefined) | 0.15

Row | SMILES | logP
145 | CNC(=O)Oc1cccc(Cl)c1 | 2.03
146 | FCCl | 0.51
147 | O=C(O)Cc1ccc(O)cc1 | 0.75
148 | c1c[nH]nn1 | -0.29
149 | C=C1C(=O)OC2CC(C)C3C=CC(=O)C3(C)CC12 (centres undefined) | 1.17
150 | O=C(O)C1c2ccccc2Oc2ccccc21 | 2.23
151 | CC(=O)Nc1ncccn1 | -0.75
152 | CN(N=O)C(=O)NC1C(O)OC(CO)C(O)C1O (centres undefined) | -1.45
153 | CNCCO | -0.94
154 | CC(=O)Nc1c(I)c(C(=O)N[C@H]2C(O)O[C@H](CO)[C@@H](O)[C@@H]2O)c(I)c(N(C)C(C)=O)c1I (some centres undefined) | -1.89
155 | OCCCl | 0.03
156 | CCCC(=O)NN | -0.62
157 | CCBr | 1.61
158 | O=[N+]([O-])c1ccncc1 | 0.33
159 | COc1ccc(NC(=O)NC(=N)N)cc1 | 0.56
160 | O=C(CN1CCCCC1)Nc1cccc(F)c1 | 2.85
161 | NC(=O)NC(=O)Cc1ccccc1 | 0.87
162 | CCCCN1CCCCC1C(=O)Nc1c(C)cccc1C (centres undefined) | 3.41
163 | Nc1ccc(CCO)cc1 | 0.1
164 | CNC(=O)Oc1cccc(N(C)C)c1 | 1.43

Source: the OPERA property sets (Mansouri et al. 2018)
